# US4902799A, “Bicyclic alkoxy- and alkylthio-substituted aminoalcohols” (Maggioni-Winthrop S.p.A., priority 1985, dated 1990)
# Read-outs that look alike come from different tables or passages of the source.
# Tests used:
# Normolipemic rats [1] = assay: Hypolipemic activity in normolipemic rats; type: in vivo, rat (Sprague Dawley Nos male rats)
# Normolipemic rats [2] = conditions: "as known"; cited from earlier work
# male mice [3] = assay: Anti-hypoxic activity (gasping time after decapitation); type: in vivo; conditions: Mus musculus, po, read-out: Gasping time, % diff. from control
# platelet aggregation = assay: Collagen-induced platelet aggregation ex vivo; type: in vivo, rat
# in vivo = conditions: mouse, po
# toxic adrenaline doses = assay: animal or person; type: in vivo, mouse (male mice CrI:CD 1(CR) BR); conditions: Mus musculus, po, 24 h, read-out: PD50 (50% protective dose)
# male mice [4] = conditions: mouse, in vivo, po
# [5] = target: T1, alpha2-adrenergic receptors (Rattus norvegicus, UniProt P22909); conditions: (a) Qian et al. 1983 for Tibalosine; (b) Van Zwieten et al. 1985 for Urapidil; cited from earlier work
# T1 construct: from tissue; host or cells: rat brain membranes
# T1 sequence (P22909 1-465): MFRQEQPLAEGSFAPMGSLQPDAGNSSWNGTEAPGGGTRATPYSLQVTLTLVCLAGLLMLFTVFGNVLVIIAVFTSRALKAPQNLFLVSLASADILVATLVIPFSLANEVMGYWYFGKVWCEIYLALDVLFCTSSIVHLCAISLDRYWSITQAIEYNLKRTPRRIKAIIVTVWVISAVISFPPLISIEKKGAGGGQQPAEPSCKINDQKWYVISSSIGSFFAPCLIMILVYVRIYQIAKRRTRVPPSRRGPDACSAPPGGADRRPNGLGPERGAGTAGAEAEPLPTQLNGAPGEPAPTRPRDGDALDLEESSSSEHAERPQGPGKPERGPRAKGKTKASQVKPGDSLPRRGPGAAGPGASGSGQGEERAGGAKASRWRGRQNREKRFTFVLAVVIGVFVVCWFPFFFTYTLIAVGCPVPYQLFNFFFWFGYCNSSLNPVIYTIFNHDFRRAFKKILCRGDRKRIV
# [6] = target: alpha1-adrenergic receptors; conditions: (a) Qian et al. 1983 for Tibalosine; (b) Van Zwieten et al. 1985 for Urapidil; cited from earlier work
# [7] = tested on: SH rats (spontaneously hypertensive rats); assay: Anti-hypertensive activity in spontaneously hypertensive rats, tail artery plethysmography; type: in vivo, rat; conditions: SHR
# Method: The anti-hypertensive activity was tested on groups of 5 SH rats (spontaneously hypertensive rats) weighing 200±10 g, fasting for 18 hrs and treated orally with the invention compounds suspended in 2.5% gum arabic.
# Changes in blood pressure (mm Hg) before (T=0) and after treatment (2, 4 and 6 hrs) were measured according to the method of tail artery plethysmography reported in "Spontaneously hypertensive rats (SHR): Guidlines for breeding, care and use", SHR Conference, 1976, page 11.
# The arterial pressure before the treatment was 210±10 mmHg.
# [8] = 0.15 mM/kg oral, blood 1 hr after treatment, collagen 2-4 mcg/ml
smiles,measurement,setting,value
"COc1ccc2cc(C(O)C(C)N3CCC(NC(=O)c4ccccc4)CC3)ccc2c1 (stereo not shown) [MG 38105, 2-(4-Benzamido-1-piperidinyl)-1-(6-methoxy-2-naphthyl)-propanol]","CHOL, % different from control",Normolipemic rats [1]; 0.023 mM/kg/p.o. × 4 days,-35.7%
same,"CHOL-HDL, % different from control",Normolipemic rats [1]; 0.023 mM/kg/p.o. × 4 days,-13.3%
same,"Liver Weight, % different from control",Normolipemic rats [1]; 0.023 mM/kg/p.o. × 4 days,+5.5%
same,"TG, % different from control",Normolipemic rats [1]; 0.023 mM/kg/p.o. × 4 days,-36.2%
same,"CHOL, % different from control",Normolipemic rats [1]; 0.046 mM/kg/p.o. × 4 days,-45.8%
same,"CHOL-HDL, % different from control",Normolipemic rats [1]; 0.046 mM/kg/p.o. × 4 days,+1.3%
same,"Liver Weight, % different from control",Normolipemic rats [1]; 0.046 mM/kg/p.o. × 4 days,+8.0%
same,"TG, % different from control",Normolipemic rats [1]; 0.046 mM/kg/p.o. × 4 days,-63.8%
same,"CHOL, % different from control",Normolipemic rats [1]; 0.185 mM/kg/p.o. × 4 days,-96.6%
same,"CHOL-HDL, % different from control",Normolipemic rats [1]; 0.185 mM/kg/p.o. × 4 days,+3.9%
same,"Liver Weight, % different from control",Normolipemic rats [1]; 0.185 mM/kg/p.o. × 4 days,+4.8%
same,"TG, % different from control",Normolipemic rats [1]; 0.185 mM/kg/p.o. × 4 days,-70.6%
same,hypolipemic activity (in words),Normolipemic rats [1]; oral,good activity at very low doses
"CSc1ccc2cc(C(O)C(C)N3CCN(C(=O)c4cccnc4)CC3)ccc2c1 (stereo not shown) [MG 28453, 2-[4-(3-Pyridinylcarbonyl)-1-piperazinyl]-1-(6-methylthio-2-naphthyl)-propanol]","CHOL, % different from control",Normolipemic rats [1]; 0.185 mM/kg/p.o. × 4 days,+8.5%
same,"CHOL-HDL, % different from control",Normolipemic rats [1]; 0.185 mM/kg/p.o. × 4 days,+45.2%
same,"Liver Weight, % different from control",Normolipemic rats [1]; 0.185 mM/kg/p.o. × 4 days,+2.8%
same,"TG, % different from control",Normolipemic rats [1]; 0.185 mM/kg/p.o. × 4 days,-36.4%
same,"CHOL, % different from control",Normolipemic rats [1]; 0.37 mM/kg/p.o. × 4 days,-26.9%
same,"CHOL-HDL, % different from control",Normolipemic rats [1]; 0.37 mM/kg/p.o. × 4 days,+31.7%
same,"Liver Weight, % different from control",Normolipemic rats [1]; 0.37 mM/kg/p.o. × 4 days,+21.6%
same,"TG, % different from control",Normolipemic rats [1]; 0.37 mM/kg/p.o. × 4 days,-75.4%
same,CHOL-HDL (in words),Normolipemic rats [1]; oral,increase of CHOL-HDL
same,serum TG (in words),Normolipemic rats [1]; oral,significative decrease of serum TG
"CCOC(=O)C(C)(C)Oc1ccc(Cl)cc1 [Clofibrate, reference compound]","CHOL, % different from control",Normolipemic rats [1]; 0.82 mM/kg/p.o. × 4 days,-15.0%
same,"CHOL-HDL, % different from control",Normolipemic rats [1]; 0.82 mM/kg/p.o. × 4 days,0%
same,"Liver Weight, % different from control",Normolipemic rats [1]; 0.82 mM/kg/p.o. × 4 days,+19.5%
same,"TG, % different from control",Normolipemic rats [1]; 0.82 mM/kg/p.o. × 4 days,-40.0%
same,liver increase (in words),Normolipemic rats [2],significative liver increase
"COc1ccc2cc(C(O)C(C)N3CCN(C(=O)C=Cc4ccccc4)CC3)ccc2c1 (stereo not shown) [MG 38071, 2-[4-(1-Oxo-3-phenyl-2-propenyl)-1-piperazinyl]-1-(6-methoxy-2-naphthyl)-propanol]",change in vivo at 100 mg/kg,"male mice [3]; 100 mg/kg/p.o., pretreatment 90 min",32.7%
"COc1ccc2cc(C(O)C(C)N3CCN(C(=O)c4ccco4)CC3)ccc2c1 (stereo not shown) [MG 38078, 2-[4-(2-Furoyl)-1-piperazinyl]-1-(6-methoxy-2-naphthyl)-propanol]","% Inhibition, Aggregation rate",platelet aggregation; [8],64.0%
same,"% Inhibition, Maximum aggregation",platelet aggregation; [8],70.4%
same,LD50,in vivo,> 2000 mg/kg
"O=C1C(CC[S+]([O-])c2ccccc2)C(=O)N(c2ccccc2)N1c1ccccc1 (stereo not shown) [Sulfinpyrazone, reference compound]","% Inhibition, Aggregation rate","platelet aggregation; rat, in vivo, po",89.0%
same,"% Inhibition, Maximum aggregation","platelet aggregation; rat, in vivo, po",92.5%
"COc1ccc2cc(C(O)C(C)N3CCN(c4ccccc4)CC3)ccc2c1 (stereo not shown) [MG 38088, 2-(4-Phenyl-1-piperazinyl)-1-(6-methoxy-2-naphthyl)-propanol]",ED50,toxic adrenaline doses,13.5 mg/kg
same,"CHOL, % different from control",Normolipemic rats [1]; 0.185 mM/kg/p.o. × 4 days,-35.1%
same,"CHOL-HDL, % different from control",Normolipemic rats [1]; 0.185 mM/kg/p.o. × 4 days,-9.1%
same,"Liver Weight, % different from control",Normolipemic rats [1]; 0.185 mM/kg/p.o. × 4 days,0%
same,"TG, % different from control",Normolipemic rats [1]; 0.185 mM/kg/p.o. × 4 days,-70.5%
same,"CHOL, % different from control",Normolipemic rats [1]; 0.37 mM/kg/p.o. × 4 days,-41.3%
same,"CHOL-HDL, % different from control",Normolipemic rats [1]; 0.37 mM/kg/p.o. × 4 days,+5.4%
same,"Liver Weight, % different from control",Normolipemic rats [1]; 0.37 mM/kg/p.o. × 4 days,+3.4%
same,"TG, % different from control",Normolipemic rats [1]; 0.37 mM/kg/p.o. × 4 days,-68.5%
same,"% Inhibition, Aggregation rate",platelet aggregation; [8],75.1%
same,"% Inhibition, Maximum aggregation",platelet aggregation; [8],68.6%
same,LD50,male mice [4],higher than 1000 mg/kg
same,change in vivo at 100 mg/kg,male mice [3],46.8%
COc1ccccc1N1CCN(CCCNc2cc(=O)n(C)c(=O)n2C)CC1 [Urapidil],IC50,[5],14 µM
same,IC50,[6],0.8 µM
same,Max. changes in systolic pressure,[7]; 1 mg/kg p.o.,-16 mmHg
same,Max. changes in systolic pressure,[7]; 5 mg/kg p.o.,-47 mmHg
same,Max. changes in systolic pressure,[7]; 15 mg/kg p.o.,-72.4 mmHg
"Clc1ccccc1CN1CCc2sccc2C1 [Ticlopidine, reference compound]","% Inhibition, Aggregation rate",platelet aggregation; [8],56.0%
same,"% Inhibition, Maximum aggregation",platelet aggregation; [8],70.0%
"CSc1ccc2cc(C(O)C(C)N3CCN(C(=O)c4ccco4)CC3)ccc2c1 (stereo not shown) [MG 28451, 2-[4-(2-Furoyl)-1-piperazinyl]-1-(6-methylthio-2-naphthyl)-propanol]","CHOL, % different from control",Normolipemic rats [1]; 0.37 mM/kg/p.o. × 4 days,-13.5%
same,"CHOL-HDL, % different from control",Normolipemic rats [1]; 0.37 mM/kg/p.o. × 4 days,+46.5%
same,"Liver Weight, % different from control",Normolipemic rats [1]; 0.37 mM/kg/p.o. × 4 days,+9.2%
same,"TG, % different from control",Normolipemic rats [1]; 0.37 mM/kg/p.o. × 4 days,-48.2%
same,CHOL-HDL (in words),Normolipemic rats [1]; oral,increase of CHOL-HDL
same,serum TG (in words),Normolipemic rats [1]; oral,significative decrease of serum TG
same,LD50,in vivo,> 1000 mg/kg
